According to patent US20250074892A1, “CARBONYL BRIDGED HETEROCYCLIC COMPOUND, AND COMPOSITION AND APPLICATION THEREOF” (BEIJING SCITECH-MQ PHARMACEUTICALS LIMITED, priority 2022, published 2025):

Columns and labels:
[1] = test system: L929 cells; test: Inhibition of cell necrosis (CCK8 method), L929 cells; type: cell-based, mouse; conditions: 4-8 hours, CCK8
Experimental: (§1) In this assay example 2, under the condition of inducing programmed cell necrosis of HT29 and L929 cell lines, different concentrations of the test compounds were added to test the IC50 of the rescue effect of the test compounds on the programmed necrosis.
(§2) • Compounds: dissolved in DMSO to make a 10 mM solution; • TNF-α: initial concentration of 100 µg/mL; • Z-VAD-FMK: dissolved in DMSO to make a 10 mM solution; • AT-406: dissolved in DMSO to make a 10 mM solution. • Cell lines: HT29 cells were cultured in McCoy's 5A medium containing 10% fetal bovine serum, 100 U/mL penicillin, and 100 µg/mL streptomycin, and L929 cells were cultured in MEM medium containing 10% horse serum, 100 U/mL penicillin, and 100 µg/mL streptomycin.
(§3) 1. The test compound was dissolved in DMSO to form a stock solution, and a gradient dilution was performed; the solution was then diluted with the corresponding culture medium to obtain a solution with 10 times the working concentration.
(§4) 2. The cells in the logarithmic growth phase were diluted with culture medium to a specific cell concentration. 80 µL of the cell suspension was added to a 96-well plate, so that the cell densities of HT29 and L929 were 1.2*10^4 cells/well and 2.0*10^4 cells/well, respectively. The plate was cultured in a 37° C., 5% carbon dioxide incubator overnight.
(§5) 3. […] of the compound solution was added to each well of the 96-well plate inoculated with cells. The compounds to be tested were serially diluted 4-fold to obtain 9 concentrations in duplicate, starting from a maximum concentration of 10 μM. At the same time, a control group without compound addition was set up.
(§6) 4. After the cells were cultured for another 30 minutes, 10 μL of the inducer mixture was added to each well. The final concentrations of Human TNF-α, AT-406 and Z-VAD-FMK in HT29 cells were 20 ng/mL, […] and 20 μM, respectively; and the final concentrations of Murine TNF-α and Z-VAD-FMK in L929 cells were 20 ng/mL and 25 μM, respectively.
(§7) 5. The 96-well plate in which compounds and inducer were added was placed in a 37° C., 5% carbon dioxide incubator for further culture, wherein HT29 cells were cultured for 16 hours and L929 cells were cultured for 4-8 hours. Cell viability was detected by CCK8. GraphPad Prism software was used to prepare a dose-effect curve and IC50 was calculated.

[2] = test system: HT29 cells; test: Inhibition of cell necrosis (CCK8 method), HT29 cells; type: cell-based, human; conditions: Homo sapiens, HT-29, 16 h, HT29, Human TNF-α/AT-406/Z-VAD-FMK, 16 hours, CCK8
Experimental: as §1, §2, §3, §4, §5, §6, §7

[3] = Mus musculus, L929, L929, Murine TNF-α/Z-VAD-FMK

SMILES	IC50 [1, 3] [nM]	IC50 [2] [nM]	IC50 ([1]; L929, Murine TNF-α/Z-VAD-FMK) [nM]
CC(C)(O)CCOc1ccc(F)c(-c2ccnc(N3CCC(C(=O)N4N=CCC4c4cc(F)cc(F)c4)CC3)c2)c1 (racemic) [Example 21, (5-(3,5-difluorophenyl)-4,5-dihydro-1H-pyrazol-1-yl)(1-(4-(2-fluoro-5-(3-hydroxy-3-methylbutoxy)phenyl)pyridin-2-yl)piperidin-4-yl)methanone]	10 to 50	≤ 10	–
CC(C)(O)COc1ccc(F)c(-c2ccnc(N3CCC(C(=O)N4N=CCC4c4cc(F)cc(F)c4)CC3)c2)c1 (racemic) [Example 23, (5-(3,5-difluorophenyl)-4,5-dihydro-1H-pyrazol-1-yl)(1-(4-(2-fluoro-5-(2-hydroxy-2-methylpropoxy)phenyl)pyridin-2-yl)piperidin-4-yl)methanone]	≤ 10	≤ 10	–
CC(C)(O)CCCOc1ccc(F)c(-c2ccnc(N3CCC(C(=O)N4N=CCC4c4cc(F)cc(F)c4)CC3)c2)c1 (racemic) [Example 24, (5-(3,5-difluorophenyl)-4,5-dihydro-1H-pyrazol-1-yl)(1-(4-(2-fluoro-5-((4-hydroxy-4-methylpentyl)oxy)phenyl)pyridin-2-yl)piperidin-4-yl)methanone]	10 to 50	≤ 10	–
CC(C)(O)CCOc1ccc(F)c(-c2ccnc(N3CCC(C(=O)N4N=CC[C@H]4c4cc(F)cc(F)c4)CC3)c2)c1 (racemic) [Example 41]	10 to 50	≤ 10	–
CC(C)(O)CCCOc1ccc(F)c(-c2ccnc(N3CCC(C(=O)N4N=CC[C@H]4c4cc(F)cc(F)c4)CC3)c2)c1 (racemic) [Example 43]	10 to 50	≤ 10	–
COCCOc1cccc(-c2ccnc(N3CCC(C(=O)N4N=CCC4c4cc(F)cc(F)c4)CC3)c2)c1 (stereo not shown) [Example 1, (5-(3,5-difluorophenyl)-4,5-dihydro-1H-pyrazol-1-yl)(1-(4-(3-(2-methoxyethoxy)phenyl)pyridin-2-yl)piperidin-4-yl)methanone]	50 to 100	10 to 50	–
COCCCOc1cccc(-c2ccnc(N3CCC(C(=O)N4N=CCC4c4cc(F)cc(F)c4)CC3)c2)c1 (stereo not shown) [Example 2, (5-(3,5-difluorophenyl)-4,5-dihydro-1H-pyrazol-1-yl)(1-(4-(3-(3-methoxypropoxy)phenyl)pyridin-2-yl)piperidin-4-yl)methanone]	50 to 100	10 to 50	–
O=C(C1CCN(c2cc(-c3cccc(OC4CCOCC4)c3)ccn2)CC1)N1N=CCC1c1cc(F)cc(F)c1 (stereo not shown) [Example 3, (5-(3,5-difluorophenyl)-4,5-dihydro-1H-pyrazol-1-yl)(1-(4-(3-((tetrahydro-2H-pyran-4-yl)oxy)phenyl)pyridin-2-yl)piperidin-4-yl)methanone]	50 to 100	10 to 50	–
COCCOc1ccc(C)c(-c2ccnc(N3CCC(C(=O)N4N=CCC4c4cc(F)cc(F)c4)CC3)c2)c1 (stereo not shown) [Example 4, (5-(3,5-difluorophenyl)-4,5-dihydro-1H-pyrazol-1-yl)(1-(4-(5-(2-methoxyethoxy)-2-methylphenyl)pyridin-2-yl)piperidin-4-yl)methanone]	10 to 50	10 to 50	–
COCCCOc1ccc(C)c(-c2ccnc(N3CCC(C(=O)N4N=CCC4c4cc(F)cc(F)c4)CC3)c2)c1 (stereo not shown) [Example 5, (5-(3,5-difluorophenyl)-4,5-dihydro-1H-pyrazol-1-yl)(1-(4-(5-(3-methoxypropoxy)-2-methylphenyl)pyridin-2-yl)piperidin-4-yl)methanone]	50 to 100	10 to 50	–
Cc1ccc(OC2CCOCC2)cc1-c1ccnc(N2CCC(C(=O)N3N=CCC3c3cc(F)cc(F)c3)CC2)c1 (stereo not shown) [Example 6, (5-(3,5-difluorophenyl)-4,5-dihydro-1H-pyrazol-1-yl)(1-(4-(2-methyl-5-((tetrahydro-2H-pyran-4-yl)oxy)phenyl)pyridin-2-yl)piperidin-4-yl)methanone]	50 to 100	10 to 50	–
O=C(C1CCN(c2cc(-c3cccc(OCCCCO)c3)ccn2)CC1)N1N=CCC1c1cc(F)cc(F)c1 (stereo not shown) [Example 7, (5-(3,5-difluorophenyl)-4,5-dihydro-1H-pyrazol-1-yl)(1-(4-(3-(4-hydroxybutoxy)phenyl)pyridin-2-yl)piperidin-4-yl)methanone]	10 to 50	10 to 50	–
CC(C)(O)CCCOc1cccc(-c2ccnc(N3CCC(C(=O)N4N=CCC4c4cc(F)cc(F)c4)CC3)c2)c1 (stereo not shown) [Example 8, (5-(3,5-difluorophenyl)-4,5-dihydro-1H-pyrazol-1-yl)(1-(4-(3-((4-hydroxy-4-methylpentyl)oxy)phenyl)pyridin-2-yl)piperidin-4-yl)methanone]	10 to 50	10 to 50	–
Cc1ccc(OCCCCO)cc1-c1ccnc(N2CCC(C(=O)N3N=CCC3c3cc(F)cc(F)c3)CC2)c1 (stereo not shown) [Example 9, (5-(3,5-difluorophenyl)-4,5-dihydro-1H-pyrazol-1-yl)(1-(4-(5-(4-hydroxybutoxy)-2-methylphenyl)pyridin-2-yl)piperidin-4-yl)methanone]	–	10 to 50	10 to 50
Cc1ccc(OCCCC(C)(C)O)cc1-c1ccnc(N2CCC(C(=O)N3N=CCC3c3cc(F)cc(F)c3)CC2)c1 (stereo not shown) [Example 10, (5-(3,5-difluorophenyl)-4,5-dihydro-1H-pyrazol-1-yl)(1-(4-(5-((4-hydroxy-4-methylpentyl)oxy)-2-methylphenyl)pyridin-2-yl)piperidin-4-yl)methanone]	≤ 10	≤ 10	–
Cc1ccc(OCCC2CCOCC2)cc1-c1ccnc(N2CCC(C(=O)N3N=CCC3c3cc(F)cc(F)c3)CC2)c1 (stereo not shown) [Example 11, (5-(3,5-difluorophenyl)-4,5-dihydro-1H-pyrazol-1-yl)(1-(4-(2-methyl-5-(2-(tetrahydro-2H-pyran-4-yl)ethoxy)phenyl)pyridin-2-yl)piperidin-4-yl)methanone]	50 to 100	10 to 50	–
O=C(C1CCN(c2cc(-c3cccc(OCCCO)c3)ccn2)CC1)N1N=CCC1c1cc(F)cc(F)c1 (stereo not shown) [Example 12, (5-(3,5-difluorophenyl)-4,5-dihydro-1H-pyrazol-1-yl)(1-(4-(3-(3-hydroxypropoxy)phenyl)pyridin-2-yl)piperidin-4-yl)methanone]	50 to 100	≤ 10	–
COCCCCOc1cccc(-c2ccnc(N3CCC(C(=O)N4N=CCC4c4cc(F)cc(F)c4)CC3)c2)c1 (stereo not shown) [Example 13, (5-(3,5-difluorophenyl)-4,5-dihydro-1H-pyrazol-1-yl)(1-(4-(3-(4-methoxybutoxy)phenyl)pyridin-2-yl)piperidin-4-yl)methanone]	50 to 100	10 to 50	–
O=C(C1CCN(c2cc(-c3cccc(OCC4CCOCC4)c3)ccn2)CC1)N1N=CCC1c1cc(F)cc(F)c1 (stereo not shown) [Example 14, (5-(3,5-difluorophenyl)-4,5-dihydro-1H-pyrazol-1-yl)(1-(4-(3-((tetrahydro-2H-pyran-4-yl)methoxy)phenyl)pyridin-2-yl)piperidin-4-yl)methanone]	10 to 50	10 to 50	–
Cc1ccc(OCCCO)cc1-c1ccnc(N2CCC(C(=O)N3N=CCC3c3cc(F)cc(F)c3)CC2)c1 (stereo not shown) [Example 15, (5-(3,5-difluorophenyl)-4,5-dihydro-1H-pyrazol-1-yl)(1-(4-(5-(3-hydroxypropoxy)-2-methylphenyl)pyridin-2-yl)piperidin-4-yl)methanone]	10 to 50	≤ 10	–
COCCOc1ccc(Cl)c(-c2ccnc(N3CCC(C(=O)N4N=CCC4c4cc(F)cc(F)c4)CC3)c2)c1 (stereo not shown) [Example 16, (1-(4-(2-chloro-5-(2-methoxyethoxy)phenyl)pyridin-2-yl)piperidin-4-yl)(5-(3,5-difluorophenyl)-4,5-dihydro-1H-pyrazol-1-yl)methanone]	50 to 100	10 to 50	–
O=C(C1CCN(c2cc(-c3cc(OCCCO)ccc3Cl)ccn2)CC1)N1N=CCC1c1cc(F)cc(F)c1 (stereo not shown) [Example 17, (1-(4-(2-chloro-5-(3-hydroxypropoxy)phenyl)pyridin-2-yl)piperidin-4-yl)(5-(3,5-difluorophenyl)-4,5-dihydro-1H-pyrazol-1-yl)methanone]	50 to 100	10 to 50	–
COCCOc1ccc(C)c(-c2ccnc(N3CCC(C(=O)N4N=CCC4c4ccccc4F)CC3)c2)c1 (stereo not shown) [Example 19, (5-(2-fluorophenyl)-4,5-dihydro-1H-pyrazol-1-yl)(1-(4-(5-(2-methoxyethoxy)-2-methylphenyl)pyridin-2-yl)piperidin-4-yl)methanone]	10 to 50	≤ 10	–
